Literature values in patent US11512089B2, “Substituted [1,2,4]triazolo[3,4-a]phthalazines as modulators of GABAA receptor activity” (SHANGHAI SIMR BIOTECHNOLOGY CO., LTD, priority 2018, dated 2022).

Tested on: α5-GABAA receptor
Details: cited from earlier work

Structure (SMILES): Cc1cc(-c2nncc3c(C(C)(C)C)c(OCc4ncnn4C)nn23)no1 [MRK016, 3-tert-butyl-7-(5-methylisoxazol-3-yl)-2-(1-methyl-1H-1,2,4-triazol-5-ylmethoxy)pyrazolo[1,5-d][1,2,4]triazine]
- block of the binding of (^3H)R0-15-1788 in brain: efficiently block
